Measured values as given in patent publication US20160122342A1, “ENHANCER OF ZESTE HOMOLOG 2 INHIBITORS” (GLAXOSMITHKLINE INTELLECTUAL PROPERTY (NO.2) LIMITED, priority 2013, published 2016).
pIC50: −log10 of the molar value. Structures can show the parent of a compound that is named as a salt.

Molecular target: T1, EZH2 within the PRC2 complex (Homo sapiens, UniProt Q15910)
T1 construct: FLAG; made in house; host or cells: Sf9 cells
Test: Assay Protocol 2: EZH2 methyltransferase scintillation proximity assay, biotinylated histone H3 peptide substrate
Format: biochemical
Details: SPA, 3H-SAM, biotinylated unmethylated histone H3K27 peptide substrate, 5-member PRC2 complex
Procedure: Compounds contained herein were evaluated for their ability to inhibit the methyltransferase activity of EZH2 within the PRC2 complex. […] The peptides were captured on streptavidin-coated SPA beads and the resulting signal was read on a ViewLux plate reader. • 4. Prepare 10 mM stock of compounds from solid in 100% DMSO. • 5. […] Dispense 10 nL of compound from the dilution plate into reaction plates (Corning, 384-well polystyrene NBS, Cat#3673). Prepare the following solutions: • 7. 1× Base Buffer, 50 mM Tris-HCl, pH 8, 2 mM MgCl2: Per 1 L of base buffer, combine 1 M Tris-HCl, pH 8 (50 mL), 1 M MgCl2 (2 mL), and distilled water (948 mL). • 8. 1× Assay Buffer: Per 10 mL of 1× Assay Buffer, combine 1× Base Buffer (9.96 mL), 1 M DTT (40 uL), and 10% Tween-20 (1 uL) to provide a final concentration of 50 mM Tris-HCl, pH 8, 2 mM MgCl2, 4 mM DTT, 0.001% Tween-20. • 9. 2× Enzyme Solution: […] SPA Bead Solution: Per 1 mL of SPA Bead Solution, combine Streptavidin coated SPA beads (PerkinElmer, Cat# RPNQ0261, 40 mg) and 1× Assay Buffer (1 mL) to provide a working concentration of 40 mg/mL. • 11. 2× Substrate Solution: Per 10 mL of 2× Substrate Solution, combine 40 mg/mL SPA Bead Solution (375 uL), 1 mM biotinylated histone H3K27 peptide (200 uL), 12.5 uM 3H-SAM (240 uL; 1 mCi/mL), 1 mM cold SAM (57 uL), and 1× Assay Buffer (9.13 mL) to provide a final concentration of 0.75 mg/mL SPA Bead Solution, 10 uM biotinylated histone H3K27 peptide, 0.15 uM 3H-SAM (˜12 uCi/mL 3H-SAM), and 2.85 uM cold SAM. • 12. 2.67× Quench Solution: Per 10 mL of 2.67× Quench Solution, combine 1× Assay Buffer (9.73 mL) and 10 mM cold SAM (267 uL) to provide a final concentration of 100 uM cold SAM. • 3. […] Dispense 5 uL/well of 1× Assay Buffer to column 18 (low control reactions). • 11. Dispense 5 uL/well of 2× Substrate Solution to columns 1-24 (note: substrate solution should be mixed to ensure homogeneous bead suspension before dispensing into matrix reservoir). • 12. Dispense 5 uL/well of 2× Enzyme Solution to columns 1-17, 19-24. • 13. Incubate the reaction for 60 min at room temperature. • 5. Dispense 6 uL/well of the 2.67× Quench Solution to columns 1-24. • 6. Seal assay plates and spin for ˜1 min at 500 rpm. • 7. Dark adapt plates in the ViewLux instrument for 15-60 min. • 2. Read the assay plates on the Viewlux Plate Reader utilizing the 613 nm emission filter or clear filter (300 s exposure). Reagent addition can be done manually or with automated liquid handler. Percent inhibition was calculated relative to the DMSO control for each compound concentration and the resulting values were fit using standard IC50 fitting parameters within the ABASE data fitting software package.

T1 sequence (Q15910 whole entry): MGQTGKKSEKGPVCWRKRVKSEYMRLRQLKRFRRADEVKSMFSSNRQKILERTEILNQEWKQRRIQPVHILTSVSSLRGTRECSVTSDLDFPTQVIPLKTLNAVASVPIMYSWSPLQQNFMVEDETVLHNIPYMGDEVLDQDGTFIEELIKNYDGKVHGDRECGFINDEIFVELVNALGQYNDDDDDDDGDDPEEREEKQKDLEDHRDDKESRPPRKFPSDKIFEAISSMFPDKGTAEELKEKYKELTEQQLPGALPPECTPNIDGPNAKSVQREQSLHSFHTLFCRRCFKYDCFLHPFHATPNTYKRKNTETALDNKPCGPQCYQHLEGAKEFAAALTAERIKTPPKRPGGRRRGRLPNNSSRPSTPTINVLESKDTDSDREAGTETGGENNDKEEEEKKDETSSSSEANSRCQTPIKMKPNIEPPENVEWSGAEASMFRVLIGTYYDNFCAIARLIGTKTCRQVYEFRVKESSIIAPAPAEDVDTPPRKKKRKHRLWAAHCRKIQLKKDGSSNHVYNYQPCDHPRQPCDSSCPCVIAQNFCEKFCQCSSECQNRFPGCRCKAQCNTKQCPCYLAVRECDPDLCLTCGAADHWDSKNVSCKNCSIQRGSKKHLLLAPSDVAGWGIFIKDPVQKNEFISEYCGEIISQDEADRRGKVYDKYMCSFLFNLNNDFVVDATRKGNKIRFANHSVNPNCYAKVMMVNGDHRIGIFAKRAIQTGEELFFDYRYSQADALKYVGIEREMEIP
T1 sequence (O75530 whole entry partner): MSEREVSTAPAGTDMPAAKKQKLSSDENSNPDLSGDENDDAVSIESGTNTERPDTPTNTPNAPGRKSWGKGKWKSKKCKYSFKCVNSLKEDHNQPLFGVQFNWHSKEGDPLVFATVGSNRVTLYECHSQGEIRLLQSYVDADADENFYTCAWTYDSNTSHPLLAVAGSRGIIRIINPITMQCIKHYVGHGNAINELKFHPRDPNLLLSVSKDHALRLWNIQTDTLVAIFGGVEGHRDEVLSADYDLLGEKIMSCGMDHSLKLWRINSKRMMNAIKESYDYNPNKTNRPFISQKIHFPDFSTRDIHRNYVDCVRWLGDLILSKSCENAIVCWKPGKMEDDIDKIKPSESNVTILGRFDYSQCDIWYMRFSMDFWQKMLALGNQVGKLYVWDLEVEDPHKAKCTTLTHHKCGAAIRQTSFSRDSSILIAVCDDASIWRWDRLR
T1 sequence (Q15022 whole entry partner): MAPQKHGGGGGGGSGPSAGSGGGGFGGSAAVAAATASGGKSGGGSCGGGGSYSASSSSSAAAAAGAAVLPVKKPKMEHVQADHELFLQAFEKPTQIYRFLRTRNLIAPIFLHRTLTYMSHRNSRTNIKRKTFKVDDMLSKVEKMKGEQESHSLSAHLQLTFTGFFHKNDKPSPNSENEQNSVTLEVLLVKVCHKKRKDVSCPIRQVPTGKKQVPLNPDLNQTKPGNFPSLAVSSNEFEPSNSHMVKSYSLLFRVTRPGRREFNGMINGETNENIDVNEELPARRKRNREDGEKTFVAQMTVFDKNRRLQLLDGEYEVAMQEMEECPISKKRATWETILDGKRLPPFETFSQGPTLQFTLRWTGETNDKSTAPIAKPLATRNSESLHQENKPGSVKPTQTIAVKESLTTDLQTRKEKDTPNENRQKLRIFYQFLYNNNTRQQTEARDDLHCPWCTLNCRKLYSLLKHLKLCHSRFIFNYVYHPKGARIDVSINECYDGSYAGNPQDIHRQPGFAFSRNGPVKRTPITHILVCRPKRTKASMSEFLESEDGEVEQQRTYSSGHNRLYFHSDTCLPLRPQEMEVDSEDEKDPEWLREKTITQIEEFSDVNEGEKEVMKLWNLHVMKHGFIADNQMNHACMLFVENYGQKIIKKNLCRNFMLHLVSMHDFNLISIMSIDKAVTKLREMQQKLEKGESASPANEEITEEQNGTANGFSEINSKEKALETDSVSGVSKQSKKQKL
T1 sequence (Q09028 whole entry partner): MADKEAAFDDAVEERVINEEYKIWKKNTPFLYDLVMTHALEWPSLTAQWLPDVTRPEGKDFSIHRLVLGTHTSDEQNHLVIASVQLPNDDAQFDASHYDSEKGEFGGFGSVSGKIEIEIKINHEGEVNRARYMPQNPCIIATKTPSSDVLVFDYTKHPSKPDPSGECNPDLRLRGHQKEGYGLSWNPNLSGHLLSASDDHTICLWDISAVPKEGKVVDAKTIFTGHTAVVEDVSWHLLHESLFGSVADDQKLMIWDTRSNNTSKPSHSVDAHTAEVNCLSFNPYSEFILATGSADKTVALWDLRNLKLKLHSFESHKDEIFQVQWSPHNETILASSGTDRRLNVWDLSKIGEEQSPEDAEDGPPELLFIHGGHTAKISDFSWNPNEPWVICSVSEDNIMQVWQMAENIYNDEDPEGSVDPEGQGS
T1 sequence (Q6ZN18 whole entry partner): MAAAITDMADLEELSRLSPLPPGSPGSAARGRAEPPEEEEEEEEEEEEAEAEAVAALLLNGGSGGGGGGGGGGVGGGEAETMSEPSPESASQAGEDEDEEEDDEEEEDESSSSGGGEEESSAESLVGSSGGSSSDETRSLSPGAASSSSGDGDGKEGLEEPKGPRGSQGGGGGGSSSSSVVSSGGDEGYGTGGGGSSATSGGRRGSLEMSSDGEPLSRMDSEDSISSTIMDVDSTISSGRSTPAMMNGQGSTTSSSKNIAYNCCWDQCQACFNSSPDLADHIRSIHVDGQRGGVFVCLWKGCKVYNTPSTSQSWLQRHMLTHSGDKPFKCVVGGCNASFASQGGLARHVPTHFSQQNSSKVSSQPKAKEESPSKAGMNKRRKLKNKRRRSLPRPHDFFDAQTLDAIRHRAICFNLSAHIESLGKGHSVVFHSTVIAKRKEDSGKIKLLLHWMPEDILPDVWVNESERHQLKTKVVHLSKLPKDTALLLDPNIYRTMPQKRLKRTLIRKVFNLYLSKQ

pIC50	SMILES
6.80	CCN(c1cccc2c1C/C=C/CCc1cc(C)[nH]c(=O)c1CNC2=O)C1CC2(CCN(C)CC2)C1 [Example 69, (E)-10-(ethyl(7-methyl-7-azaspiro[3.5]nonan-2-yl)amino)-3-methyl-5,6,15,16-tetrahydrobenzo[c]pyrido[4,3-j][1]azacyclododecine-1,14(2H,9H)-dione]
6.90	CCN(c1cccc2c1C/C=C/CCc1cc(C)[nH]c(=O)c1CNC2=O)C1CC2(CC(N)C2)C1 (stereo not drawn) [Example 70, (E)-10-((6-aminospiro[3.3]heptan-2-yl)(ethyl)amino)-3-methyl-5,6,15,16-tetrahydrobenzo[c]pyrido[4,3-j][1]azacyclododecine-1,14(2H,9H)-dione]
6.60	CCN(c1cccc2c1C/C=C/CCc1cc(C)[nH]c(=O)c1CNC2=O)C1CC2(CC(N(C)C)C2)C1 (stereo not drawn) [Example 71, (E)-10-((6-(dimethylamino)spiro[3.3]heptan-2-yl)(ethyl)amino)-3-methyl-5,6,15,16-tetrahydrobenzo[c]pyrido[4,3-j][1]azacyclododecine-1,14(2H,9H)-dione]
7.10	CCN(c1cccc2c1C/C=C/CCc1cc(C)[nH]c(=O)c1CNC2=O)C1CC2(C1)CN(C)C2 [Example 72, (E)-10-(ethyl(2-methyl-2-azaspiro[3.3]heptan-6-yl)amino)-3-methyl-5,6,15,16-tetrahydrobenzo[c]pyrido[4,3-j][1]azacyclododecine-1,14(2H,9H)-dione]
6.90	CCN(c1cccc2c1C/C=C/CCc1cc(C)[nH]c(=O)c1CNC2=O)[C@H]1CC[C@H](NC)CC1 [Example 73, (E)-10-(ethyl(trans-4-(methylamino)cyclohexyl)amino)-3-methyl-5,6,15,16-tetrahydrobenzo[c]pyrido[4,3-j][1]azacyclododecine-1,14(2H,9H)-dione formic acid salt]
6.80	CCN(c1cccc2c1C/C=C/CCc1cc(C)[nH]c(=O)c1CNC2=O)[C@H]1CC[C@@H](NC)CC1 [Example 74, (E)-10-(ethyl(cis-4-(methylamino)cyclohexyl)amino)-3-methyl-5,6,15,16-tetrahydrobenzo[c]pyrido[4,3-j][1]azacyclododecine-1,14(2H,9H)-dione formic acid salt]
6.60	CCN(c1cccc2c1C/C=C/CCc1cc(C)[nH]c(=O)c1CNC2=O)[C@H]1CC[C@@H](N2CC(F)C2)CC1 [Example 75, (E)-10-(ethyl(cis-4-(3-fluoroazetidin-1-yl)cyclohexyl)amino)-3-methyl-5,6,15,16-tetrahydrobenzo[c]pyrido[4,3-j][1]azacyclododecine-1,14(2H,9H)-dione]
6.90	CCN(c1cccc2c1C/C=C/CCc1cc(C)[nH]c(=O)c1CNC2=O)[C@H]1CC[C@H](N2CC(F)C2)CC1 [Example 76, (E)-10-(ethyl(trans-4-(3-fluoroazetidin-1-yl)cyclohexyl)amino)-3-methyl-5,6,15,16-tetrahydrobenzo[c]pyrido[4,3-j][1]azacyclododecine-1,14(2H,9H)-dione]
6.80	CCN(c1cccc2c1C/C=C/CCc1cc(C)[nH]c(=O)c1CNC2=O)C1CCCNCC1 (stereo not drawn) [Example 77, (E)-10-(azepan-4-yl(ethyl)amino)-3-methyl-5,6,15,16-tetrahydrobenzo[c]pyrido[4,3-j][1]azacyclododecine-1,14(2H,9H)-dione]
6.80	CCN(c1cccc2c1C/C=C/CCc1cc(C)[nH]c(=O)c1CNC2=O)[C@H]1CC[C@@H](O)CC1 [Example 78, (E)-10-(ethyl(cis-4-hydroxycyclohexyl)amino)-3-methyl-5,6,15,16-tetrahydrobenzo[c]pyrido[4,3-j][1]azacyclododecine-1,14(2H,9H)-dione]
6.90	CCN(c1cccc2c1C/C=C/CCc1cc(C)[nH]c(=O)c1CNC2=O)[C@H]1CC[C@H](O)CC1 [Example 79, (E)-10-(ethyl(trans-4-hydroxycyclohexyl)amino)-3-methyl-5,6,15,16-tetrahydrobenzo[c]pyrido[4,3-j][1]azacyclododecine-1,14(2H,9H)-dione]
6.70	CCN(c1cccc2c1C/C=C/CCc1cc(C)[nH]c(=O)c1CNC2=O)[C@H]1CC[C@@H](N2CC(F)(F)C2)CC1 [Example 80, (E)-10-((cis-4-(3,3-difluoroazetidin-1-yl)cyclohexyl)(ethyl)amino)-3-methyl-5,6,15,16-tetrahydrobenzo[c]pyrido[4,3-j][1]azacyclododecine-1,14(2H,9H)-dione]
6.70	CCN(c1cccc2c1C/C=C/CCc1cc(C)[nH]c(=O)c1CNC2=O)[C@H]1CC[C@H](N2CC(F)(F)C2)CC1 [Example 81, (E)-10-((trans-4-(3,3-difluoroazetidin-1-yl)cyclohexyl)(ethyl)amino)-3-methyl-5,6,15,16-tetrahydrobenzo[c]pyrido[4,3-j][1]azacyclododecine-1,14(2H,9H)-dione]
6.60	CCN(c1cccc2c1C/C=C/CCc1cc(C)[nH]c(=O)c1CNC2=O)[C@H]1CC[C@@H](NCCC(F)(F)F)CC1 [Example 82, (E)-10-(ethyl(cis-4-((3,3,3-trifluoropropyl)amino)cyclohexyl)amino)-3-methyl-5,6,15,16-tetrahydrobenzo[c]pyrido[4,3-j][1]azacyclododecine-1,14(2H,9H)-dione]
6.80	CCN(c1cccc2c1C/C=C/CCc1cc(C)[nH]c(=O)c1CNC2=O)[C@H]1CC[C@H](NCCC(F)(F)F)CC1 [Example 83, (E)-10-(ethyl(trans-4-((3,3,3-trifluoropropyl)amino)cyclohexyl)amino)-3-methyl-5,6,15,16-tetrahydrobenzo[c]pyrido[4,3-j][1]azacyclododecine-1,14(2H,9H)-dione]
6.70	Cc1cc2c(c(=O)[nH]1)CNC(=O)c1cccc(O[C@H]3CC[C@H](N(C)C)CC3)c1C/C=C/CC2 [Example 84, (E)-10-((trans-4-(dimethylamino)cyclohexyl)oxy)-3-methyl-5,6,15,16-tetrahydrobenzo[c]pyrido[4,3-j][1]azacyclododecine-1,14(2H,9H)-dione]
5.30	Cc1cc2c(c(=O)[nH]1)CNC(=O)c1cccc(O[C@H]3CC[C@H](N(C)C)CC3)c1C/C=C\CC2 [Example 85, (Z)-10-((trans-4-(dimethylamino)cyclohexyl)oxy)-3-methyl-5,6,15,16-tetrahydrobenzo[c]pyrido[4,3-j][1]azacyclododecine-1,14(2H,9H)-dione]
6.70	CCN(c1cccc2c1C/C=C/CCc1cc(C)[nH]c(=O)c1CNC2=O)[C@H]1CC[C@@H](N2CCOCC2)CC1 [Example 86, (E)-10-(ethyl(cis-4-morpholinocyclohexyl)amino)-3-methyl-5,6,15,16-tetrahydrobenzo[c]pyrido[4,3-j][1]azacyclododecine-1,14(2H,9H)-dione]
